This passage reports IC50 and selectivity ratio results from ChEMBL document CHEMBL1159175, “Thiophenoxy peptides: A new class of HIV replication inhibitors” (Bioorg Med Chem Lett, 1996).

For data set [1], the system named is MT4. Briefly: In vitro antiviral activity against HIV-1 replication in MT-4 cells was determined by 50% inhibition of syncytia formation: Inactive. It counts as functional, cell-based, Homo sapiens.
The subject of data set [2] is MT4. Kind of data set: In vitro antiviral activity against HIV-1 replication in MT-4 cells was determined by 50% inhibition of syncytia formation: Inactive / toxic. Format: functional, cell-based, Homo sapiens.
A short description of data set [3]: Therapeutic index was determined by the ratio of ID50/IC50 (ID50: Dose required to cause death of 50% of uninfected MT-4 cells). Format: cell-based, MT4. As to conditions: human, MT-4 cells (uninfected, for ID50); read-out: TI; call rule not given here.
In data set [4] the test system is MT4. Briefly: In vitro antiviral activity against HIV-1 replication in MT-4 cells was determined by 50% inhibition of syncytia formation. As to conditions: Homo sapiens. Format: functional, cell-based.

Square brackets hold non-standard residues; d marks the D form. Peptide text beside a SMILES is read from it. * marks the point of attachment. Fmoc = O=C(OCC1c2ccccc2-c2ccccc21)*; Gly(SPh) = N[C@@H](Sc1ccccc1)C(=O)O

As for `C=CCOC(=O)C(NC(=O)C(CC(C)C)NC(=O)OC(C)(C)C)Sc1ccccc1` (stereo not given), the IC50 entry in the data set with MT4 [1] is reported as “Not Active”. On the same count and under the same terms, the entry for `CC(C)CC(NC(=O)OC(C)(C)C)C(=O)NC(Sc1ccccc1)C(=O)O` (stereo not given) is “Not Active”. In the case of `CC[C@H](C)[C@H](NC(=O)OCC1c2ccccc2-c2ccccc21)C(=O)N[C@@H](CCCN=C(N)N)C(=O)N[C@@H](CCCCN)C(=O)N[C@H](C(=O)N[C@@H](CC(C)C)C(=O)N[C@@H](Sc1ccccc1)C(=O)N[C@@H](CC(C)C)C(=O)N[C@@H](CC(=O)O)C(=O)NCC(N)=O)[C@@H](C)CC` (Fmoc-IRKIL[Gly(SPh)]LDG-NH2), in the data set with MT4 [2], the IC50 entry was “Toxic”.

For the compound `CC[C@H](C)[C@H](NC(=O)CNC(=O)[C@H](CC(=O)O)NC(=O)[C@H](CC(C)C)NC(=O)[C@@H](NC(=O)[C@H](CC(C)C)NC(=O)[C@@H](NC(=O)[C@H](CCCCN)NC(=O)[C@H](CCCN=C(N)N)NC(=O)[C@@H](NC(=O)OCC1c2ccccc2-c2ccccc21)[C@@H](C)CC)[C@@H](C)CC)Sc1ccccc1)C(=O)O` (Fmoc-IRKIL[Gly(SPh)]LDGI-OH), in data set [3], the selectivity ratio was 10. Further, half-maximal inhibition in the data set with MT4 [4] (IC50) required 100 µM. For `CC[C@H](C)[C@H](N)C(=O)N[C@@H](CCCN=C(N)N)C(=O)N[C@@H](CCCCN)C(=O)N[C@H](C(=O)N[C@@H](CC(C)C)C(=O)N[C@@H](Sc1ccccc1)C(=O)N[C@@H](CC(C)C)C(=O)N[C@@H](CC(=O)O)C(=O)NCC(N)=O)[C@@H](C)CC` (H-IRKIL[Gly(SPh)]LDG-NH2), in that order: 50 and 5 µM.

Take `CC[C@H](C)[C@H](N)C(=O)N[C@@H](CCCN=C(N)N)C(=O)N[C@@H](CCCCN)C(=O)N[C@H](C(=O)N[C@@H](CC(C)C)C(=O)N[C@@H](Sc1ccccc1)C(=O)N[C@@H](CC(C)C)C(=O)N[C@@H](CC(=O)O)C(=O)NCC(=O)N[C@H](C(=O)O)[C@@H](C)CC)[C@@H](C)CC` (H-IRKIL[Gly(SPh)]LDGI-OH): in data set [3], the selectivity ratio was 10. The same compound came in with an IC50 with MT4 [4] of 10 µM. For H-IRKILFLDGI-OH, the IC50 entry in the data set with MT4 [1] is on record as “Not Active”.
